Data set [1] relates to MIAPACA2 cells. Nature of the data set: Proliferation assay (CellTiter-Glo, 72 h) in MIAPACA2 cells. It is filed as cell-based, human.
Data set [2] concerns 143 BTK WT cells. Nature of the data set: Cell cycle analysis in 143 BTK WT cells. It is filed as cell-based. Particulars: HCT13 + Cu(II) 20 μM. Here is the method:
FIG. 3A: Mito Stress Test of MIAPACA2 PDAC cells treated with HCT13 (25 nM)+Cu(II) (20 μM) for 24h. FIG. 3B: electron flow assay in isolated mitochondria treated with HCT-13 (100 nM)+Cu(II) (20 μM) for 1h. FIG. 3C: viability of 143 BTK parental (wild type, WT) and ρ0 cells after 48h of the indicated HCT13 concentration+Cu(II) (20 μM) treatment, assessed with Trypan Blue Staining. FIG. 3D: 48h cell cycle histogram and plots of S-phase arrest plots in 143 BTK WT and 143 BTK ρ0 cells at 24, 48 and 72h following treatment with indicated concentrations of HCT13+Cu(II)(20 μM). (mean±SD, n=2, one-way ANOVA corrected for multiple comparisons by Bonferroni adjustment, * P<0.05; ** P<0.01; *** P<0.001).
Another HCT compound, Dp44mT, was reported to increase AMPK expression and induce ROS, although its cytotoxicity was not attributed to the functionality of the mitochondria. (Ref 50). To determine whether the cytotoxicity of HCT13 was mitochondria-dependent, its effects upon 143 BTK ρ0, an mtDNA-deficient fibroblast cell line, was examined. Both 143 BTK ρ0 and parental (wild type, WT) cells were treated with HCT13+20 μM Cu(II) for 48 hours, after which cell viability was determined through trypan blue staining (FIG. 3C).
Cell cycle: Cell cycle was assessed using Propidium iodide staining at indicated timepoints. Cells were pulsed with EdU 1 h before collection at different time points. […]

Data set [3] concerns p185BCR-ABL Arf−/− pre-B-ALL cells. Nature of the data set: In vivo efficacy, systemic p185 pre-B ALL model. Also noted: species or system mouse. The note with it: 1 mg/kg q.d. 8 days; fourteen days after treatment initiation. From the text:
FIG. 9A: dose and schedule for the efficacy study in p185 pre-B-ALL mice. FIGS. 9B-9D: bioluminescence images and quantification of whole body radiance of mice treated with HCT-16 (n=5) or vehicle control (n=10). FIG. 9E: dose and schedule for the efficacy study in MV4-11 AML bearing mice. FIGS. 9F-9H: bioluminescence images and quantification of whole body radiance of mice treated with HCT-16 (n=5) or vehicle control (n=5). (mean±SD, n=2, student's paired t-test, * P<0.05; ** P<0.01; *** P<0.001). q.d.=once/day. For purposes of the disclosure, Cu(HCT-13) is the same as compound HCT-16 (i.e., copper complexed with HCT-13).
The in vivo efficacy and tolerability of HCT-13 was investigated. […] Both p185 and MV4-11 cell lines were engineered to express luciferase to monitor the systemic leukemic burden by bioluminescence imaging (BLI). (Boulos et al, Blood 2011, 117(13):3585-3595; Rahmani et al, Cancer Res. 2018, 78(11):3075-3086). To bypass the need for systemic copper supplementation, a one-to-one complex of copper and HCT-13 (i.e., HCT-16) was prepared for in vivo administration according to reported procedures for similar compounds and characterized by UV-HPLC and HR-MS. […]
In vivo leukemia models and treatment regimens. […] The leukemic burden was monitored using bioluminescence imaging. […]

The nature of data set [4]: HCT-13 stock solution (solubilization). It is filed as physicochemical. Particulars: aqueous with cosolvent or surfactant or cyclodextrin; aqueous 40% captisol with 1% DMSO, heating 50° C., sonication 15 minutes; read-out: concentration solubilized. The protocol:
HCT-13 stock solution. HCT-13 was solubilized up to a concentration of 20 mg/mL in an aqueous solution of 40% captisol with 1% DMSO with the aid of heating at 50° C. and sonication for 15 minutes.

On to `CN(C)C(=S)N/N=C/c1nccc2cc(F)ccc12` (mixture of isomers) [HCT13, (E)-2-((6-Fluoroisoquinolin-1-yl)methylene)-N,N-dimethylhydrazine-1-carbothioamide and (Z)-2-((6-Fluoroisoquinolin-1-yl)methylene)-N,N-dimethylhydrazine-1-carbothioamide], for which, in data set [1] (Fe(II) 20 μM), the “antiproliferative potency with Fe(II) supplementation” value is recorded as “diminished but still active”. In data set [1] (Zn(II) 20 μM), the “antiproliferative potency with Zn(II) supplementation” value was “largely inactive”. Also, the S-phase arrest result in data set [2] is recorded as “marked S-phase arrest”. For the same compound, the “systemic disease burden versus control group (bioluminescence)” value in data set [3] is “significantly lower systemic disease burden”. Also, the solubility at 15 min in data set [4] is at most 20 mg/mL.

The record behind these values is US12528774B2, “Thiosemicarbazone compounds and uses thereof” (The Regents of the University of California, priority 2019, dated 2026).
